One assay deals with T1, Rat Androgen Receptor (Rattus norvegicus, UniProt P15207).
T1 construct: purchased Life Technologies A15880
T1 sequence (P15207 646-902 limits assumed): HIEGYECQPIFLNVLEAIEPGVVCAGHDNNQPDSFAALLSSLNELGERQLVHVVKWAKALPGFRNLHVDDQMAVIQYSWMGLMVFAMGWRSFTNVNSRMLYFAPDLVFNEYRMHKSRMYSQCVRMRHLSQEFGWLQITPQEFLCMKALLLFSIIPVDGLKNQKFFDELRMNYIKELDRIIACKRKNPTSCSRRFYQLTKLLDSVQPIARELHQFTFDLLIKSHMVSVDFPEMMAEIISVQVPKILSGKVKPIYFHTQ
The assay is described as follows: Rat Androgen Receptor Binding (polarscreen AR competitor assay, fluorescence polarization). Particulars: displacement of Fluormone AL Green, 4 hours at RT, read-out: AR rat-fluorimetric. An outline of the steps:
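Fluorescence-polarization competition of Fluormone AL Green binding to rat androgen receptor; compounds screened in duplicate at 1 and 10 μM, 4 h at RT, read at λexc 485/λem 535 nm. IC50 from 1:10 dilution series, 10 μM to 0.1 nM, in 1× buffer.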

The next assay addresses T2, AR-Receptor (Homo sapiens, UniProt P10275).
T2 sequence (P10275 1-920 Q868H): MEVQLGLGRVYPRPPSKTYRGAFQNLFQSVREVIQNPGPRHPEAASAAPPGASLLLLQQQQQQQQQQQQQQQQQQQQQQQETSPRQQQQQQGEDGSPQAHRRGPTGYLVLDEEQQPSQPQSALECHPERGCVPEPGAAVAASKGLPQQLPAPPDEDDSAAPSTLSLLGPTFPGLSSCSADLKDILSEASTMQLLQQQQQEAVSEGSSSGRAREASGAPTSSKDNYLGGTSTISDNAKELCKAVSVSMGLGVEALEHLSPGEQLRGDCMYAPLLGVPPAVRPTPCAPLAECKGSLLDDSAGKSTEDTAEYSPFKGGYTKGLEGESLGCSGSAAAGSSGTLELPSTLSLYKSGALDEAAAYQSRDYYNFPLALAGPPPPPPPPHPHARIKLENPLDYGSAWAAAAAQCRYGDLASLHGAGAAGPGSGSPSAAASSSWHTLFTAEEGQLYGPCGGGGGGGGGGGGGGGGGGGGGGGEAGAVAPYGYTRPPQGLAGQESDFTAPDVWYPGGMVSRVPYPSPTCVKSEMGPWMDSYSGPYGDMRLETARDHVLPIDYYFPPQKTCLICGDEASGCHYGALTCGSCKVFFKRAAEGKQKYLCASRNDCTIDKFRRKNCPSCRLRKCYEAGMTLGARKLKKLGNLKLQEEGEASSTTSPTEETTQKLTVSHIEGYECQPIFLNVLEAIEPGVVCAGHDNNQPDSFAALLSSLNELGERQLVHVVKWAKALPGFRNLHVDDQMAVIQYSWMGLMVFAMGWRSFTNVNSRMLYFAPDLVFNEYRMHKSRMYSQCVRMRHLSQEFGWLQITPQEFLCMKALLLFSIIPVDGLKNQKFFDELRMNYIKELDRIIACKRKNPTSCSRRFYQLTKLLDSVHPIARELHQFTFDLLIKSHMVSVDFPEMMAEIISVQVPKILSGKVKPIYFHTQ
Briefly: Functional Assay AR-Receptor (MDA-MB-453 cells, luciferase). The format is cell-based. Particulars: antagonist effect in the presence of DHT 1 nM, 24 h, luciferase luminescence, read-out: AR antag KB. On the procedure:
Functional Assay AR-Receptor
MDA-MB-453 cells were cultured in DMEM (ATCC, ref 30-2002), 10% FBS, 1% penicillin, 1% streptomycin, 75 μg/ml gentamycin.
The day before performing assay, the cells were trypsinized and seeded in a 384-well plate (Greiner, ref 781098) (8000 cells/well) in 50 μl of complete culture medium. Cells were stores at 37° C. in a 5% CO2 atmosphere overnight.
The medium was replaced by 50 μl complete growth medium with 0.1% FBS. Compounds were dispensed with Echo 550 (Labcyte) and incubated for 24 h at 37° C. in a 5% CO2 atmosphere. Antagonist effect was measured in the presence of DHT 1 nM.
After incubation, assay medium removed and 20 μl of 1× Promega lysis buffer were added to each well. The plate was incubated 15 minutes at RT and quick-frozen to −80° C. and the thaw to room temperature. 50 μl of luciferase substrate (E4550, Promega) were added to each well and luminescence (integration time 1000 msec) was read in an EnSpire multilabel reader (Perkin Elmer).

The target of a further assay is T3, human androgen receptor (Homo sapiens, UniProt P10275, T878A).
T3 construct: endogenously expressed human androgen receptor using the LnCap prostate cancer cell line; endogenous in cells; host or cells: LNCaP prostate cancer cell line (whole cells)
T3 sequence (P10275 1-920 T878A): T2 sequence (P10275 1-920 Q868H) with H868Q, T878A
The assay is described as follows: Human Androgen Receptor Binding (radioligand binding, LnCap prostate cancer cell line). The following applies: LnCap cells, displacement of [^3H]-methyltrienolone, 2 hours at 37° C.; read-out: AR LNCaP. An outline of the steps: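 Whole-cell displacement of [3H]-methyltrienolone from endogenous AR (T878A) in LnCap cells, in RPMI with 0.1% BSA and triamcinolone acetonide. Compounds 10 μM to 0.1 nM in 1:10 steps, 2 h at 37 °C; cells washed, SDS-lysed, bound radioactivity by scintillation counting for IC50.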

Molecules are shown by their SMILES. Where a chain is given by its changes, count along the chain named.

With `CC(=O)C1=C(C)NC(C)=C(C(=O)OCCc2ccccc2)C1c1csc2ccccc12` (centres unmarked) [Example C10, Phenethyl 5-acetyl-4-(benzo[b]thiophen-3-yl)-2,6-dimethyl-1,4-dihydropyridine-3-carboxylate], the IC50 on Rat Androgen Receptor was not below 1000 nM. The Kb at AR-Receptor was in the range of 100 to 1000 nM.

`CC(=O)C1=C(C)NC(C)=C(C(=O)OCc2ccncc2)C1c1csc2ccccc12` (centres unmarked) [Example B12, Pyridin-4-ylmethyl 5-acetyl-4-(benzo[b]thiophen-3-yl)-2,6-dimethyl-1,4-dihydropyridine-3-carboxylate]: the IC50 at human androgen receptor and at Rat Androgen Receptor was not below 1000 nM in each case. At AR-Receptor, the Kb is less than 100 nM.

Take `CC(=O)C1=C(C)NC(C)=C(C(=O)OCc2ccncc2)C1c1csc2c(Br)cccc12` (centres unmarked) [Example J33, Pyridin-4-ylmethyl 5-acetyl-4-(7-bromobenzo[b]thiophen-3-yl)-2,6-dimethyl-1,4-dihydropyridine-3-carboxylate]: at human androgen receptor, the IC50 lay within 100 to 1000 nM. The Kb at AR-Receptor was in the range of 100 to 1000 nM.

With `CC(=O)C1=C(C)NC(C)=C(C(=O)Cc2ccccc2)C1c1csc2ccccc12` (centres unmarked) [Example C52, 1-(5-acetyl-4-(benzo[b]thiophen-3-yl)-2,6-dimethyl-1,4-dihydropyridin-3-yl)-2-phenylethan-1-one], the IC50 on Rat Androgen Receptor is 100 to 1000 nM. The Kb at AR-Receptor lay within 100 to 1000 nM.

On to `CC(=O)C1=C(C)NC(C2CC2)=C(C(=O)OCc2ccncc2)C1c1csc2ccccc12` (centres unmarked) [Example J32, Pyridin-4-ylmethyl 5-acetyl-4-(benzo[b]thiophen-3-yl)-2-cyclopropyl-6-methyl-1,4-dihydropyridine-3-carboxylate], for which the IC50 at human androgen receptor is not below 1000 nM. In addition, the Kb at AR-Receptor fell in the range of 100 to 1000 nM.

For `CC(=O)C1=C(C)NC(C)=C(C(=O)OCC2CCCCC2)C1c1csc2ccccc12` (centres unmarked) [Example B21, Cyclohexylmethyl 5-acetyl-4-(benzo[b]thiophen-3-yl)-2,6-dimethyl-1,4-dihydropyridine-3-carboxylate], the IC50 on human androgen receptor was not below 1000 nM; at Rat Androgen Receptor it was 100 to 1000 nM. Also, at AR-Receptor, the Kb was 100 to 1000 nM.
